Data: patent US8598087B2, “Crystalline form of 4-[5-[3-chloro-5-(trifluoromethyl)phenyl]-4, 5-dihydro-5-(trifluoromethyl)-3-isoxazolyl]-N-[2-0X0-2-[(2,2,2-trifluoroethyl)amino]ethyl]-1- naph-thalenecarboxamide” (E. I. du Pont de Nemours and Company, priority 2010, dated 2013)
Entries after “also recorded” stand apart in the source; their conditions may differ.

Tests used:
Format in all cases: physicochemical
[1] = Physical stability / hygroscopicity of polymorph Form A (relative humidity exposure); details: 5 to 95% relative humidity at 25° C. (5 hours)
Protocol: The physical stability of polymorph Form A was characterized. A samples of Form A exposed to 5 to 95% relative humidity at 25° C.

[2] = Interconversion slurry experiments (relative stability of solid forms, XRPD)
Protocol: Interconversion slurry experiments were performed in a variety of solvents at different temperatures. Sufficient amounts of Compound 1 were added to solvents in vials so that excess solid remained. The mixtures were agitated in sealed vials at the selected temperature and the solids were isolated by filtration after the selected time and analyzed by XRPD.

Vacuum drying experiment = assay: Vacuum drying experiment
[3] = Physical stability of polymorph Form B under humidity stress (XRPD)
[4] = Physical stability of amorphous Compound 1 (vapor stress and slurry, XRPD)
Protocol: The physical stability of the amorphous material was characterized. […] Amorphous Compound 1 was also slurried in methanol\water (1:1) for 5 days at 60° C. resulting in irregular fragments of crystals determined to be Form B by XRPD.

O=C(CNC(=O)c1ccc(C2=NOC(c3cc(Cl)cc(C(F)(F)F)c3)(C(F)(F)F)C2)c2ccccc12)NCC(F)(F)F (centres unmarked) [Form A, 4-[5-[3-chloro-5-(trifluoromethyl)phenyl]-4,5-dihydro-5-(trifluoromethyl)-3-isoxazolyl]-N-[2-oxo-2-[(2,2,2-trifluoroethyl)amino]ethyl]-1-naphthalenecarboxamide]
hygroscopicity [1]: non-hygroscopic
weight change on exposure to relative humidity [1]: negligible weight change
relative physical stability of solid forms ([2]; in acetonitrile): metastable solid form

O=C(CNC(=O)c1ccc(C2=NOC(c3cc(Cl)cc(C(F)(F)F)c3)(C(F)(F)F)C2)c2ccccc12)NCC(F)(F)F (racemic) [Compound 1, 4-[5-[3-chloro-5-(trifluoromethyl)phenyl]-4,5-dihydro-5-(trifluoromethyl)-3-isoxazolyl]-N-[2-oxo-2-[(2,2,2-trifluoroethyl)amino]ethyl]-1-naphthalenecarboxamide]
solid form yielded by slurry (XRPD) ([2]; acetonitrile, 3 days at 83° C.): Pattern G solid
solid form yielded by slurry (XRPD) ([2]; acetonitrile, 8 days at 0° C.): Pattern G solid
solid form yielded by slurry (XRPD) ([2]; acetonitrile/water (9:1), 3 days at 83° C.): polymorph Form B
solid form yielded by slurry (XRPD) ([2]; acetonitrile/water (9:1), 8 days at 0° C.): Pattern G solid

O=C(CNC(=O)c1ccc(C2=NOC(c3cc(Cl)cc(C(F)(F)F)c3)(C(F)(F)F)C2)c2ccccc12)NCC(F)(F)F (centres unmarked) [Pattern G solid]
relative physical stability of solid forms ([2]; in acetonitrile): most stable solid form
solid form obtained after vacuum drying (Vacuum drying experiment; vacuum drying (36-68 mtorr) at 50° C. for 4 hours): Form A
solid form obtained after vacuum drying (Vacuum drying experiment; vacuum drying (51 mtorr) at 70° C. for 5 hours): solid glass

O=C(CNC(=O)c1ccc(C2=NOC(c3cc(Cl)cc(C(F)(F)F)c3)(C(F)(F)F)C2)c2ccccc12)NCC(F)(F)F (centres unmarked) [Form B, 4-[5-[3-chloro-5-(trifluoromethyl)phenyl]-4,5-dihydro-5-(trifluoromethyl)-3-isoxazolyl]-N-[2-oxo-2-[(2,2,2-trifluoroethyl)amino]ethyl]-1-naphthalenecarboxamide]
change by XRPD after humidity stress ([3]; 60% relative humidity (25° C.) for 1 month): unchanged by XRPD
change by XRPD after humidity stress ([3]; 75% relative humidity (40° C.) for 1 month): unchanged by XRPD
physical stability of Form B ([3]; pure solid form, conclusion of humidity stress conditions tested): physically stable; also recorded: stable under the conditions tested
relative physical stability of solid forms ([2]; in organic solvent/water mixtures especially methanol/water): most stable solid form

O=C(CNC(=O)c1ccc(C2=NOC(c3cc(Cl)cc(C(F)(F)F)c3)(C(F)(F)F)C2)c2ccccc12)NCC(F)(F)F (centres unmarked) [Amorphous Compound 1, 4-[5-[3-chloro-5-(trifluoromethyl)phenyl]-4,5-dihydro-5-(trifluoromethyl)-3-isoxazolyl]-N-[2-oxo-2-[(2,2,2-trifluoroethyl)amino]ethyl]-1-naphthalenecarboxamide]
physical stability of the amorphous solid ([4]; pure solid form, conclusion of vapor stress and slurry): physically unstable and readily crystallized
solid form obtained after slurry (by XRPD) ([4]; slurried in methanol\water (1:1) for 5 days at 60° C.): Form B
solid form obtained after vapor stress (by XRPD) ([4]; vapor stressed under acetonitrile at 25° C. for 2 days): Pattern G material
